Measured values taken from article PMC7693160 (Pharmaceutics, 2020).
Values joined by “and” are separate entries in the source; they are usually repeats but may differ in a detail not shown here. Equal values may be shown once. Read-outs that look alike come from different tables or passages of the source. Marks after values point to notes of the source that are not given here.

Tests used:
[1] = cited from earlier work
CYP2C9 3*/3* = details: Recombinant CYP (fu,mic = 1), cited from earlier work
[2] = design: method as in earlier work; details: 55 (55, 60); cited from earlier work
CYP2C9 = details: cited from earlier work
physchem = assay type: physicochemical
Description: An experimental estimate of FLU pKa was obtained by fitting the Henderson–Hasselbalch equation (Equation (1)) to the mean aqueous equilibrium solubility (Si) values using the SIVA Toolkit version 3.0 (SIVA 3; Certara, Simcyp Division; Sheffield, UK). The lowest reported value in buffers was assumed to represent the intrinsic solubility (S0) . The pKa was then compared with values available in the literature to confirm the validity of the aqueous solubility parameter estimates. (1) Si=S0·10 ^pH−pKa The impact of bile salt concentration BS and subsequent formation of micelles on the solubility of FLU was investigated. […] Estimates of the logarithm of the micelle-water partition coefficient for the neutral Km:w,unionized and ionized drug Km:w,ionized were obtained to quantify the micelle-mediated solubility. […] Estimation of the relevant parameters was performed using the Nelder–Mead algorithm with weighting by the reciprocal of the predicted values. All estimates based on the in vitro solubility data were used as in silico input parameters for the development of the physiologically based pharmacokinetic (PBPK) model.

Caco-2 cells = details: cited from earlier work
UGT1A9 = details: Recombinant UGT; cited from earlier work
UGT2B7 = details: Recombinant UGT; cited from earlier work
[3] = cited from earlier work; remark: listed apart in the source
[4] = 1st value, ref Lee et al. (2003) as printed
[5] = 2nd value, ref Lee et al. (2015) as printed
[6] = po sol s.d. 40 mg, CYP2C9 1*/1*
[7] = po sol s.d. 40 mg, CYP2C9 1*/3*
[8] = po tab (Froben) s.d. 100 mg, ref 4
[9] = po tab (Froben) s.d. 100 mg, ref 38
[10] = po tab s.d. 50 mg, CYP2C9 1*/1*
[11] = po tab s.d. 50 mg, CYP2C9 1*/1*, median
[12] = po tab s.d. 50 mg, CYP2C9 1*/2*
[13] = po tab s.d. 50 mg, CYP2C9 1*/3*
[14] = po tab s.d. 50 mg, CYP2C9 1*/3*, median
[15] = po tab s.d. 50 mg, CYP2C9 3*/3*, individual values (n = 2)
[16] = FLU po 50 mg s.d. + fluconazole po 200 mg q.d. x7, interval 2 h, CYP2C9 1*/1*, median
[17] = FLU po 50 mg s.d. + fluconazole po 200 mg q.d. x7, interval 2 h, CYP2C9 1*/3*
[18] = FLU po 50 mg s.d. + fluconazole po 200 mg q.d. x7, interval 2 h, CYP2C9 3*/3*, individual values (n=2)
[19] = FLU po 50 mg s.d. + fluconazole po 400 mg q.d. x7, interval 2 h, CYP2C9 1*/1*
[20] = FLU po 50 mg s.d. + fluconazole po 400 mg q.d. x7, interval 2 h, CYP2C9 1*/3*
[21] = FLU po 50 mg s.d. + fluconazole po 400 mg q.d. x7, interval 2 h, CYP2C9 3*/3*, individual values (n=2)
[22] = FLU po 50 mg s.d. + fluconazole po 400 mg q.d. x7, interval 2 h
[23] = FLU po 50 mg s.d. + fluconazole po 400 mg s.d., interval 2 h, ref 47
[24] = FLU po 50 mg s.d. + fluconazole po 400 mg s.d., interval 2 h, ref 48
[25] = FLU po 50 mg s.d. + rifampicin po 600 mg q.d. x5, interval 0 h, ref Daali et al.
[26] = FLU po 100 mg s.d. + fluconazole po 200 mg b.i.d. x2, interval 0.5 h, geometric mean, ref 44
[27] = FLU po 100 mg s.d. + fluconazole po 200 mg b.i.d. x2, interval 0.5 h, geometric mean, ref 45
[28] = FLU po 100 mg s.d. + fluconazole po 200 mg b.i.d. x2, interval 0.5 h, ref 46

For `CC(C(=O)O)c1ccc(-c2ccccc2)c(F)c1` (stereo not shown) [flurbiprofen], the “observed decrease in CYP2C9 1*/3* clearance” value [1, 4] is listed as “about 37%”, the “observed increase in AUC, CYP2C9 1*/3*” value [1, 4] is listed as 1.62 fold and the “observed decrease in CYP2C9 1*/3* clearance” value [1, 5] is listed as ~44%. The “observed increase in AUC, CYP2C9 1*/3*” value [1, 5] was 1.74 fold, the “observed decrease in clearance” value ([1]; CYP2C9 1*/2* individuals) was “about 27%” and the “observed decrease in clearance” value ([1]; CYP2C9 1*/3* individuals) was ~40%. The Fox ([1]; PBPK input) was 0.71, the Clrenal [1] was 0.066 L/h and the “steady-state volume of distribution (Vss)” value [1] was “around 0.1 L/kg”. The fmCYP2C9 ([1]; contribution to overall metabolic clearance) was 0.71, the CYP2C9 metabolic contribution ([1]; human, in vivo) was “at least 71%” and the absolute bioavailability ([1]; human, in vivo) was ~ 95%. The “eliminated through metabolic oxidation to 4-hydroxy FLU” value ([1]; human, in vivo) was > 71 % of the dose, the AUCinf obs ([1]; iv s.d. 50 mg) was 35.2 mg·h/L and the fmCYP2C9 ([1]; metabolism by polymorphic CYP2C9) was ≥ 0.71. The “dose excreted into urine as acyl glucuronide of (R)-FLU” value ([1]; oral racemic FLU) was 8.4%, the “dose excreted into urine as acyl glucuronide of (S)-FLU” value ([1]; oral racemic FLU) was 7.3% and the AUCinf obs ([1]; po orod s.d. 150 mg) was 129.8 mg·h/L. The Cmax obs ([1]; po orod s.d. 150 mg) was 16.8 mg/L, the AUCinf obs [1, 6] was 29.3 mg·h/L and the CL/F obs [1, 6] was 1.39 L/h. The Cmax obs [1, 6] was 5.54 mg/L, the AUCinf obs [1, 7] was 47.6 mg·h/L and the CL/F obs [1, 7] was 0.88 L/h. For the same compound, the Cmax obs [1, 7] was 6.93 mg/L, the AUCinf obs ([1]; po sol s.d. 67.9 mg) was 55.1 mg·h/L and the Cmax obs ([1]; po sol s.d. 67.9 mg) was 10.8 mg/L. For the same compound, the AUCinf obs ([1]; po sol s.d. 100 mg) was 82.7 mg·h/L, the CL/F obs ([1]; po sol s.d. 100 mg) was 1.28 L/h and the Cmax obs ([1]; po sol s.d. 100 mg) was 14.2 mg/L. The AUCinf obs ([1]; po tab (Ansaid) s.d. 100 mg) was 80.5 mg·h/L, the Cmax obs ([1]; po tab (Ansaid) s.d. 100 mg) was 12.8 mg/L and the AUCinf obs ([1]; po tab (Ansaid) s.d. 200 mg) was 161.3 mg·h/L. For the same compound, the CL/F obs ([1]; po tab (Ansaid) s.d. 200 mg) was 1.32 L/h, the Cmax obs ([1]; po tab (Ansaid) s.d. 200 mg) was 21.4 mg/L and the AUCinf obs ([1]; po tab (Ansaid) s.d. 300 mg) was 233.9 mg·h/L. The CL/F obs ([1]; po tab (Ansaid) s.d. 300 mg) was 1.36 L/h, the Cmax obs ([1]; po tab (Ansaid) s.d. 300 mg) was 29.5 mg/L and the AUCinf obs [1, 8] was 87.8 mg·h/L. For the same compound, the CL/F obs [1, 8] was 1.27 L/h, the Cmax obs [1, 8] was 13.2 mg/L and the AUCinf obs [1, 9] was 82.3 mg·h/L. The Cmax obs [1, 9] was 13.3 mg/L, the AUCinf obs [1, 10] was 29.4 mg·h/L and the CL/F obs [1, 10] was 1.77 L/h. For the same compound, the Cmax obs [1, 10] was 5.38 mg/L, the AUCinf obs [1, 11] was 30.8^a mg/L·h and the CL/F obs [1, 11] was 1.6 ^a L/h. The Cmax obs [1, 11] was 6.1 ^a mg/L, the AUCinf obs [1, 12] was 40.7 mg·h/L and the CL/F obs [1, 12] was 1.30 L/h. For the same compound, the Cmax obs [1, 12] was 4.55 mg/L, the AUCinf obs [1, 13] was 51.1 mg·h/L and the CL/F obs [1, 13] was 1.00 L/h. For the same compound, the Cmax obs [1, 13] was 5.42 mg/L, the AUCinf obs [1, 14] was 53.7 ^a mg/L·h and the CL/F obs [1, 14] was 0.9 ^a L/h. The Cmax obs [1, 14] was 8.9 ^a mg/L, the AUCinf obs [1, 15] was 85.8 mg·h/L and 119 mg·h/L and the CL/F obs [1, 15] was 0.6 L/h and 0.4 L/h. The Cmax obs [1, 15] was 8 mg/L and 9.4 mg/L, the AUCinf obs ([1]; po tab s.d. 100 mg) was 67.7 mg·h/L and the CL/F obs ([1]; po tab s.d. 100 mg) was 1.52 L/h. The Cmax obs ([1]; po tab s.d. 100 mg) was 12.9 mg/L, the AUCinf obs ([1]; po tab s.d. 150 mg) was 124.3 mg·h/L and the Cmax obs ([1]; po tab s.d. 150 mg) was 15.2 mg/L. The “fraction absorbed (fa)” value ([1]; small intestine) was “greater than 95%”, the “CYP2C9 3*/3*-Vmax” value (CYP2C9 3*/3*) was 8.901 pmol/min/pmol CYP and the Km (CYP2C9 3*/3*; read-out: CYP2C9 3*/3*-Km) was 23.2 µM. For the same compound, the “logPo:w” value [2] was 3.99, the “DDI AUC Ratio obs” value (CYP2C9; [16]) was 2.02 ^a and the “DDI CL/F Ratio obs” value (CYP2C9; [16]) was 0.5 ^a. The “DDI Cmax Ratio obs” value (CYP2C9; [16]) was 1.03 ^a, the “DDI AUC Ratio obs” value (CYP2C9; [17]) was 1.8 and the “DDI CL/F Ratio obs” value (CYP2C9; [17]) was 0.56. The “DDI Cmax Ratio obs” value (CYP2C9; [17]) was 0.87, the “DDI AUC Ratio obs” value (CYP2C9; [18]) was 1.58 and 1.28 and the “DDI CL/F Ratio obs” value (CYP2C9; [18]) was 0.75 and 0.66. For the same compound, the “DDI Cmax Ratio obs” value (CYP2C9; [18]) was 1.08 and 0.91, the “DDI AUC Ratio obs” value (CYP2C9; [19]) was 3.03 and the “DDI CL/F Ratio obs” value (CYP2C9; [19]) was 0.31. For the same compound, the “DDI Cmax Ratio obs” value (CYP2C9; [19]) was 0.99, the “DDI AUC Ratio obs” value (CYP2C9; [20]) was 2.48 and the “DDI CL/F Ratio obs” value (CYP2C9; [20]) was 0.44. For the same compound, the “DDI Cmax Ratio obs” value (CYP2C9; [20]) was 0.94, the “DDI AUC Ratio obs” value (CYP2C9; [21]) was 1.39 and 1.12 and the “DDI CL/F Ratio obs” value (CYP2C9; [21]) was 1.00 and 0.66. For the same compound, the “DDI Cmax Ratio obs” value (CYP2C9; [21]) was 0.54 and 0.90, the “DDI AUC Ratio obs” value (CYP2C9; [22]) was 2.81 and the “DDI CL/F Ratio obs” value (CYP2C9; [22]) was 0.35. The “DDI Cmax Ratio obs” value (CYP2C9; [22]) was 1.37, the “DDI AUC Ratio obs” value (CYP2C9; [23]) was 2.16 and the “DDI CL/F Ratio obs” value (CYP2C9; [23]) was 0.46. The “DDI Cmax Ratio obs” value (CYP2C9; [23]) was 1.24, the “DDI AUC Ratio obs” value (CYP2C9; [24]) was 1.21 and the “DDI CL/F Ratio obs” value (CYP2C9; [24]) was 0.67. The “DDI Cmax Ratio obs” value (CYP2C9; [24]) was 1.14, the “DDI AUC Ratio obs” value (CYP2C9; [25]) was 0.56 and the “DDI CL/F Ratio obs” value (CYP2C9; [25]) was 1.85. For the same compound, the “DDI Cmax Ratio obs” value (CYP2C9; [25]) was 0.71, the “DDI AUC Ratio obs” value (CYP2C9; [26]) was 1.97 ^b and the “DDI Cmax Ratio obs” value (CYP2C9; [26]) was 1.47 ^b. For the same compound, the “DDI AUC Ratio obs” value (CYP2C9; [27]) was 1.71 ^b, the “DDI Cmax Ratio obs” value (CYP2C9; [27]) was 1.16 ^b and the “DDI CL/F Ratio obs” value (CYP2C9; FLU po 100 mg s.d. + fluconazole po 200 mg b.i.d. x2, interval 0.5 h, ref 44) was 0.5. For the same compound, the “DDI CL/F Ratio obs” value (CYP2C9; FLU po 100 mg s.d. + fluconazole po 200 mg b.i.d. x2, interval 0.5 h, ref 45) was 0.57, the “DDI AUC Ratio obs” value (CYP2C9; [28]) was 1.81 and the “DDI CL/F Ratio obs” value (CYP2C9; [28]) was 0.55. For the same compound, the “DDI Cmax Ratio obs” value (CYP2C9; [28]) was 1.23, the pKa (physchem) was 4.05 and the “Papp, Caco-2” value (Caco-2 cells) was 20.1 ×10⁻⁶ cm/s. For the same compound, the Km (UGT1A9) was 182 µM, the UGT1A9-Vmax (UGT1A9) was 3.286 pmol/min/mg protein and the Km (UGT2B7) was 50.2 µM. For the same compound, the UGT2B7-Vmax (UGT2B7) was 119.7 pmol/min/mg protein, the Blood/plasma ratio [3] was 0.55 and the “Fraction unbound in plasma” value [3] was 0.01. For the same compound, the “bound to plasma proteins” value [3] was > 99%.
